Here are results for four molecules from patent publication US20230135108A1, “C[…] COMPOUNDS AND METHODS OF MAKING SAME” (Canopy Growth Corporation, priority 2020, published 2023).

The nature of data set [1]: Simulated gastric fluid (SGF) assay. In kind it is in vitro ADME. Conditions: pH 1.2-1.5, pepsin, 37° C.; for half-life at 10 µM: simulated gastric fluid with pepsin, read-out: half-life in a gastric environment (SGF). As to the method: In a microcentrifuge tube, 626.5 μL of a solution containing 1.1× assay buffer (37.6 mM NaCI, pH 1.2-1.5) was diluted with 70 μL of a 10× pepsin solution (80,000 U/mL in milliQ water). […] The sample was incubated under the same conditions. At the specified time points, 150 μL aliquots of the sample were transferred to microcentrifuge tubes containing 24 μL of quenching solution (0.5 M NaHCO3). After vortexing for 5 seconds, 348 μL of protein precipitation solution containing an internal standard (25 μM Glyburide, ACN) was added. The tube was vortexed again for 20 seconds and stored in ice. Finally, the tubes were centrifuged at 5,000×g and 4° C. for 15 min. The percentage remaining CBDA or CBDA-arginine salt, respectively, compared to time zero, was quantified in the supernatant by HPLC/LC-MS or LC-MS/MS.

Data set [2] in a line: Solubility in water (HPLC of filtrate). The class given is physicochemical. Conditions: 50 mg in 8 mL deionized water, 0.45 micron filter, FIG. 7. As for the experimental part:
In a test tube, 50 mg of the respective cannabinoid salt compound was suspended in 8 mL of deionized water and vortexed. The solution was filtered with a syringe equipped with 0.45 micron filter. HPLC was used to determine the quantity of dissolved cannabinoids.

Structures can show the parent of a compound that is named as a salt.

In general, half-life refers to the time in which the quantity being followed falls by half.

Take `C=C(C)[C@@H]1CCC(C)=C[C@H]1c1c(O)cc(CCCCC)c(C(=O)O)c1O` [CBDA, cannabidiolic acid]: the half-life at 10 µM in data set [1] was roughly 19.7 min. Take `CCCCCc1cc2c(c(O)c1C(=O)O)[C@@H]1C=C(C)CC[C@H]1C(C)(C)O2` [THCA, tetrahydrocannabinolic acid]: the “half-life in a gastric environment (SGF)” value in data set [1] is on record as “about 12.2 min”. Also, the solubility in water entry in data set [2] is “virtually insoluble”. Turning to `C1CCC(NC2CCCCC2)CC1.CCCCCc1cc2c(c(O)c1C(=O)O)C1C=C(C)CCC1C(C)(C)O2` (centres unmarked) [THCA-DCHA salt], the solubility in water result in data set [2] was “virtually insoluble”. As for `CCCCCc1cc2c(c(O)c1C(=O)O)[C@@H]1C=C(C)CC[C@H]1C(C)(C)O2` [THCA-arginine salt], the half-life at 10 µM in data set [1] was roughly 14.4 min.
